# From patent US4643999A, “2-substituted imidazo[1,2-c]pyrimidines having anxiolytic properties” (priority 1983, dated 1987)
# Tests used:
# [1] = target: benzodiazepine receptor; experiment: affinity for the benzodiazepine receptor, [3H] flunitrazepam radio receptor binding (Squires and Braestrup, modified); details: inhibition by 50% of specific binding of 0.6 nM [3H] flunitrazepam to rat forebrain membrane preparations
# Method: The affinity of the compounds for the benzodiazepine receptor was assessed using the radioligand [^3 H] flunitrazepam and modifications of the original radio receptor binding method of Squires and Braestrup [Nature, Vol. 266 (1977) p. 732]. The values given in Table II are nanomolar concentrations of test drug which inhibited the specific binding of 0.6 nM [^3 H] flunitrazepam to rat forebrain membrane preparations by 50% (IC50 nM).
# [2] = Geller conflict, screening for anxiolytic activity (conflict method of Geller et al, modified); assay type: in vivo; details: po; read-out: GELLER CONFLICT MED (minimum effective dose at which there was an observed increase in shocks above control)
# Method: Screening for anxiolytic activity was carried out by modifications of the conflict method of Geller et al [Psychopharmacologia, (1960), Vol. I, p. 482]. The values given in Table II are the minimum effective doses at which there was an observed increase in shocks above control (MED mg/kg po).
Structure (SMILES),IC50 [1] [nM],minimal effective dose [2] [mg/kg]
"CSc1cc2nc(C(=O)c3ccccc3)cn2c(SC)n1 [Example 13, {5,7-bis(methylthio)-imidazo[1,2-c]pyrimidin-2-yl}phenylmethanone]",18,50
"COc1cc2nc(C(=O)c3ccccc3)cn2c(SC)n1 [Example 12, {7-methoxy-5-methylthio-imidazo[1,2-c]pyrimidin-2-yl}phenylmethanone]",126,5
"CCn1c(OC)cc2nc(C(=O)c3ccccc3)cn2c1=O [Example 2, 2-benzoyl-6-ethyl-7-methoxyimidazo[1,2-c]pyrimidin-5-one]",2000,2
"COc1cc2nc(C(=O)c3ccccc3)cn2c(OC)n1 [Example 10, (5,7-dimethoxy-imidazo[1,2-c]pyrimidin-2-yl) phenylmethanone]",1000,10
"COc1cc2nc(C(=O)c3ccccc3)cn2c(C)n1 [Example 4, (7-methoxy-5-methyl-imidazo[1,2-c]pyrimidin-2-yl)-phenylmethanone]",520,50
"C=CCn1c(OC)cc2nc(C(=O)c3ccccc3)cn2c1=O [Example 9, 6-allyl-2-benzoyl-7-methoxy-imidazo[1,2-c]pyrimidin-5-one]",500,5
"CCc1nc(OC)cc2nc(C(=O)c3ccccc3)cn12 [Example 5, (5-ethyl-7-methoxy-imidazo[1,2-c]pyrimidin-2-yl)phenylmethanone]",215,10
"CCn1c(SC)cc2nc(C(=O)c3ccccc3)cn2c1=O [Example 14, 2-benzoyl-6-ethyl-7-methylthio-imidazo[1,2-c]pyrimidin-5-one]",140,5
"CCCn1c(OC)cc2nc(C(=O)c3ccccc3)cn2c1=O [Example 3, 2-benzoyl-7-methoxy-6-propyl-imidazo[1,2-c]pyrimidin-5-one]",1000,10
"CCOc1nc(OC)cc2nc(C(=O)c3ccccc3)cn12 [Example 11, (5-ethoxy-7-methoxy-imidazo[1,2-c]pyrimidin-2-yl) phenylmethanone]",890,
"C=CCn1c(SC)cc2nc(C(=O)c3ccccc3)cn2c1=O [Example 15, 6-allyl-2-benzoyl-7-methylthio-imidazo[1,2-c]pyrimidin-5-one]",120,50
